These results are taken from publication PMC12667995 (bioRxiv, 2025).

The target of experiment [1] is T1, ProT3 (Arabidopsis thaliana, UniProt Q9SJP9).
T1 sequence (Q9SJP9 1-436): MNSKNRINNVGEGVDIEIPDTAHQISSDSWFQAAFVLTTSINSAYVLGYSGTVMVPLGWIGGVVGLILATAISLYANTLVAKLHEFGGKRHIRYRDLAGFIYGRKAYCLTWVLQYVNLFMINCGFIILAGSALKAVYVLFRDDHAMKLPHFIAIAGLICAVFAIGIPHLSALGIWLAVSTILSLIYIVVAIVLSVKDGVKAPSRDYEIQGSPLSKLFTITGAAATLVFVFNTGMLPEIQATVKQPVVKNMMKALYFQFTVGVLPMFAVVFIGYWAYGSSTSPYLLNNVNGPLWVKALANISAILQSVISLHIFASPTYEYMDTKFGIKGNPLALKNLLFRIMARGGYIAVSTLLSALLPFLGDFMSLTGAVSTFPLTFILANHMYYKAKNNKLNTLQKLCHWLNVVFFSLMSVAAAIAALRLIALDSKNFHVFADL
Kind of experiment: 3H-proline uptake and two-electrode voltage clamp, Xenopus laevis oocytes. It is filed as cell-based. The following applies: uptake: 0.5 uM 3H-L-proline, labelled compound, pH 5.0, 30 min; currents: 5 mM L-proline, pH 5.0, -60 mV.

For experiment [2], the target named is T2, ProT2 (Arabidopsis thaliana, UniProt P92962).
T2 sequence (P92962 1-439): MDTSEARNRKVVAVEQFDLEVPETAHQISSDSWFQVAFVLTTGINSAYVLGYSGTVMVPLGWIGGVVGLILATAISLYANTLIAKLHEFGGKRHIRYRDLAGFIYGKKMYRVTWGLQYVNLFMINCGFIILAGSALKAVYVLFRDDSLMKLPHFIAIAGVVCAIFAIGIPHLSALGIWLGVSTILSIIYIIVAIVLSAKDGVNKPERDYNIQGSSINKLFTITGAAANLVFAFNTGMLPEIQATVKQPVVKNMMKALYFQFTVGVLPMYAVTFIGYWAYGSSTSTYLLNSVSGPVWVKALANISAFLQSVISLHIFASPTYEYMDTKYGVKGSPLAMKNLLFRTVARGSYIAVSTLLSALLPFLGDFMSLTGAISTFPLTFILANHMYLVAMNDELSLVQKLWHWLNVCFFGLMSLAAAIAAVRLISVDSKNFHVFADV
The experiment is described as above. The following applies: uptake: 0.5 uM 3H-L-proline, labelled compound, pH 5.0, 30 min; currents: 5 mM L-proline, pH 5.0, -60 mV. It is filed as cell-based.

With `O=C(O)[C@@H]1CCCN1` [L-proline], the “3H-proline uptake and two-electrode voltage clamp, Xenopus laevis oocytes” value in experiment [1] and in experiment [2] was “Oocytes expressing ProT2 or ProT3 can import ^3H-proline into the cells from external buffer” each time.
